Columns and labels:
uterine response = conditions: preclinical models of uterine stimulation; cited from earlier work
[1] = system: MCF-7 cell line (human breast cancer cell line); conditions: MCF-7 human breast cancer cell line; cited from earlier work
[2] = system: bone loss and cholesterol; conditions: ovariectomized rat model of osteopenia; cited from earlier work
[3] = Dissolution of bilayer tablets in 0.2% Tween 80/10 mM Acetic acid at 37° C.; type: physicochemical
[4] = Storage stability of DVS/Bazedoxifene bilayered tablets (strength, % recovery); conditions: 25/60 and 40/75 for 3 months
Protocol: 80 DVS/Bazedoxifene bilayered tablets (150 mg/40 mg respectively) were stored at 25° C./60 relative humidity (RH) and 40° C./75 RH in a 50-mL high density polyethylene (HDPE) closed container for 2 weeks, 1 month and 3 months. The strengths of each active constituents and the dissolution rate in 0.2% Tween 80/10 mM Acetic acid at 37° C. were monitored.

[5] = system: reuptake of serotonin and norepinephrine; conditions: cited from earlier work

Compound: Cc1c(-c2ccc(O)cc2)n(Cc2ccc(OCCN3CCCCCC3)cc2)c2ccc(O)cc12 [BZA, 1-[4-(2-azepan-1-yl-ethoxy)-benzyl]-2-(4-hydroxy-phenyl)-3-methyl-1H-indol-5-ol acetic acid]
- Stimulation of uterine response (uterine response): little or no stimulation
- Behaviour in MCF-7 cell line [1]: estrogen antagonist
- Effect in preventing bone loss and reducing cholesterol [2]: estrogen agonist-like effect

Compound: CN(C)CC(c1ccc(O)cc1)C1(O)CCCCC1 (stereo not shown) [DVS]
- Release (in words) ([3]; first 2 hours): slow release
- Release (in words) ([3]; in 24 hours): complete release

Compound: CN(C)CC(c1ccc(O)cc1)C1(O)CCCCC1 (stereo not shown) [ODV, 1-[2-(dimethylamino)-1-(4-phenol)ethyl]-cyclohexanol]
- Stability on storage (in words) [4]: stable
- Blockade of reuptake of serotonin and norepinephrine [5]: selectively blocks

Source: patent US20100221445A1, “O-DESMETHYLVENLAFAXINE AND BAZEDOXIFENE COMBINATION PRODUCT AND USES THEREOF” (Wyeth LLC, priority 2005, published 2010)
